Patent US20130345053A1, “Fungicidal Composition” (ICA LABORATORIES CC, priority 2011, published 2013)

Legend:
penicilium italicum = assay: in vitro efficacy on PDA medium in microtitre plate wells (radial growth of colony); format: cell-based; settings: for control of the growth of the fungus (in words): 60 ppm each, alone or combined; for Radial growth of fungus / Efficacy: 60 ppm, PDA medium, 22° C.; for Radial growth of fungus: control 20 mm; for Efficacy: versus untreated control
Protocol: This example illustrates the efficacy of the composition according to the invention for controlling penicilium italicum. The trial was carried out in vitro.
The fungicidal compositions were used in the form of the formulated product incorporated in PDA medium in superfusion at doses in an amount of 6 μl of fungicidal solutions together with 1000 μl of PDA per well of 20 mm in diameter of a microtitre plate (four repeats/product). One day later, a microdrop of an aqueous suspension of penicilium italicum supplemented with 400 ppm of Tween 20 was brought to the surface of each well of the microtitre plate. The cultures were then incubated at 22° C. at 60% relative humidity under subdued light until the control culture (without fungicide) had covered the entire surface of the well. The diameter of each colony was then measured and, in comparison with untreated control, a percentage efficacy was calculated using the formula
(§1) (Diameter of the Control−Diameter of the Trial/Diameter of the Control×100)

penicillium expansum = assay: in vivo efficacy on Golden apples, preventive sprinkling then inoculation, fruit affected by rot counted; settings: for Efficacy: Golden apples, 20° C., scored from three weeks; for control of the growth of the fungus (in words): hexanal 1000 ppm, imidazalil 250 ppm, alone or combined, apples
Protocol: This example provides an illustration of the efficacy of the composition according to the invention for combating penicillium expansum on apples. The trial was carried out in vivo.
The fungicidal compositions were used in solution at the doses detailed in Table 2. Apples of the Golden variety, untreated after harvest, were treated by sprinkling a fungicidal solution up to the run-of limit at the doses described in Table 2 (10 apples per product). Six hours later, the fruit was inoculated by sprinkling an aqueous suspension at 150000 spores/ml of […]. obtained from a pre-culture on PDA medium. This inoculation by sprinkling was carried out up to the run-off limit. The fruit was then stored in the dark at 20° C. and 100% relative humidity and the scores for the disease were measured three weeks later, for a period of two weeks. The numbers of fruit samples affected by rot were counted and, in comparison with the untreated control, a percentage efficacy was calculated using the formula
as §1

geotrichum candidum = assay: in vivo efficacy on valencia citrus, wound inoculation then treatment six hours later, fruit affected by rot counted; settings: 5° C., 28 days
Protocol: This trial was carried out in vivo.
The fungicidal compositions were used in solution at the doses detailed in Table 3. Citrus of the valencia variety, untreated after harvest, was treated by sprinkling a fungicidal solution up to the run-off limit at the doses described in Table 3 of results (10 citrus per product). First inoculation by pre-made wounds was made with a suspension of 150000 spores/ml of geotrichum candidum, obtained from a pre-culture on PDA medium. Then six hours later, the product tested was applied up to the run-off limit. The fruit were then stored in the dark at 5° C. and 100% relative humidity and the scores for the disease were measured 28 days later.
The number of fruit samples affected by rot was counted and, in comparison with the untreated control, a percentage efficacy was calculated and show in table 3 below: […]

Row | SMILES | control of the growth of the fungus (in words) (penicilium italicum) | Radial growth of fungus (penicilium italicum) [mm] | Efficacy (penicilium italicum) [%] | Efficacy (penicillium expansum; 250 ppm) [%] | control of the growth of the fungus (in words) (penicillium expansum) | Efficacy (geotrichum candidum; 500 ppm) [%] | Efficacy (penicillium expansum; 1000 ppm) [%] | Efficacy (geotrichum candidum; 1500 ppm) [%]
1 | CCCN(CCOc1c(Cl)cc(Cl)cc1Cl)C(=O)n1ccnc1 [procloraz, prochloraz] | poor results | 18 | 10 |  |  |  |  | 
2 | C=CCOC(Cn1ccnc1)c1ccc(Cl)cc1Cl (stereo not drawn) [Imazalil, imazalil] |  |  |  | 28 | did not control the growth of the fungus | 0 |  | 
3 | CCCCCC=O [hexanal] | poor results | 19 | 5 |  | did not control the growth of the fungus |  | 12 | 20
